Usually IC50 stands for the midpoint of a concentration-inhibition curve.

Where a name gives a salt, the structure may show the parent alone.

Assay [1] has as its target PRMT5/MEP50 protein complex (Homo sapiens (Human), UniProt O14744). Briefly: PRMT5 biochemical assay (3H-SAM methylation of H4(1-21) peptide, filter plate scintillation). As to conditions: 10 nM PRMT5/MEP50 complex, 200 nM H4(1-21) peptide, 1 uM SAM, 25 minute incubation at room temperature. An outline of the steps: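 Human PRMT5/MEP50 complex (10 nM) methylating H4(1-21) peptide (200 nM) with 3H/unlabelled SAM (1 uM final) in pH 8.5 Tris buffer, 25 min at room temperature. Stopped with TCA, 3H-peptide captured on filter plates and scintillation-counted. IC50 from 4-parameter fit.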

Assay [2] concerns A549 lung adenocarcinoma cells. Briefly: A549 proliferation assay (Cell Titer Glo). As to conditions: 7 days with compound, cell viability by Cell Titer Glo (ATP). It is filed as cell-based. A digest of the protocol: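 A549 cells plated overnight, then treated with nine-point 3.3-fold dilutions (final top 10 μM, 0.2% DMSO) for 7 days at 37 °C, with media and compound refreshed on day 4. Viability measured as ATP by Cell Titer Glo luminescence; IC50 from 4-parameter fit normalized to DMSO control.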
Background: ATP-based viability assays read luminescence as a measure of living cells.

PRMT5/MEP50 protein complex, sequence (O14744 other isoform, or with tags, fused parts or gaps): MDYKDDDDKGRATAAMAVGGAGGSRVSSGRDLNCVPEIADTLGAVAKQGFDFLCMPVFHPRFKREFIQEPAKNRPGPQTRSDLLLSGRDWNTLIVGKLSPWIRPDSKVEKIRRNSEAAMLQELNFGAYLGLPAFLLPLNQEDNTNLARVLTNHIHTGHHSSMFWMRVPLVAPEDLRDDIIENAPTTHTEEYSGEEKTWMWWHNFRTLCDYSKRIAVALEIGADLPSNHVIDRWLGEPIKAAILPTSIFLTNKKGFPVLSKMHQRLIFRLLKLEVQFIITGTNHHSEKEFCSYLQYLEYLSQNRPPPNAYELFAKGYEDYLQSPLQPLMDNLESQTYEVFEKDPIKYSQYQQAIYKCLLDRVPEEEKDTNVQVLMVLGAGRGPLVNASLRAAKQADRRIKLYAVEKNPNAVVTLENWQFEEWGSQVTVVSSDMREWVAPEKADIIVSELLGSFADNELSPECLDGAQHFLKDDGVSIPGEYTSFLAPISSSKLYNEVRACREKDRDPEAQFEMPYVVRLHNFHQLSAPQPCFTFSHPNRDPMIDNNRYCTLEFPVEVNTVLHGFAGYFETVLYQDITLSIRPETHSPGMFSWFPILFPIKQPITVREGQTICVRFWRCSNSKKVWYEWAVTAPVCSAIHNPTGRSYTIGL
PRMT5/MEP50 protein complex, sequence (Q9BQA1 whole entry partner): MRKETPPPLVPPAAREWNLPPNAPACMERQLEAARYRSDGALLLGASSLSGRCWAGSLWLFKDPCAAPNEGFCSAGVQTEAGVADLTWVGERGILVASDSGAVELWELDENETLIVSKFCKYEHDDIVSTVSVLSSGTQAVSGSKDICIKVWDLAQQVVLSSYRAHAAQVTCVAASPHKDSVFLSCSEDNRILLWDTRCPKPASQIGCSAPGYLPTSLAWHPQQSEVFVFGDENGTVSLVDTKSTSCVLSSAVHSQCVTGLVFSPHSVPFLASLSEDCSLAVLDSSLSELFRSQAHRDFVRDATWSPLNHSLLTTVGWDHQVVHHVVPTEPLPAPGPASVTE

Turning to `N#Cc1cc2c(c(O[C@H]3C[C@@H](n4cc(Br)c5c(N)ncnc54)[C@H](O)[C@@H]3O)c1)CNCC2` [Example 120, 8-(((1S,2S,3S,4R)-4-(4-amino-5-bromo-7H-pyrrolo[2,3-d]pyrimidin-7-yl)-2,3-dihydroxycyclopentyl)oxy)-1,2,3,4-tetrahydroisoquinoline-6-carbonitrile], the IC50 in assay [1] was 1 nM; in assay [2] (Homo sapiens, A549, 168 h), 442 nM.

In the case of `Cc1ncnc2c1ccn2[C@@H]1C[C@H](Oc2ccc(I)c3c2CNCC3)[C@@H](O)[C@H]1O` [Example 98, (1S,2S,3S,5R)-3-((5-iodo-1,2,3,4-tetrahydroisoquinolin-8-yl)oxy)-5-(4-methyl-7H-pyrrolo[2,3-d]pyrimidin-7-yl)cyclopentane-1,2-diol], the IC50 in assay [1] worked out at 11 nM; in assay [2] (Homo sapiens, A549, 168 h), 1490 nM.

On to `Cc1ncnc2c1ccn2[C@@H]1C[C@H](Oc2cc(Br)c(F)c3c2CNCC3)[C@@H](O)[C@H]1O` [Example 94, (1S,2S,3S,5R)-3-((6-bromo-5-fluoro-1,2,3,4-tetrahydroisoquinolin-8-yl)oxy)-5-(4-methyl-7H-pyrrolo[2,3-d]pyrimidin-7-yl)cyclopentane-1,2-diol], for which the IC50 in assay [1] is 1 nM; in assay [2] (Homo sapiens, A549, 168 h), 115 nM.

For the compound `Cc1ncnc2c1ccn2[C@@H]1C[C@H](Oc2cc(-c3cn[nH]c3)c(F)c3c2CNCC3)[C@@H](O)[C@H]1O` [Example 166, (1S,2S,3S,5R)-3-((5-fluoro-6-(1H-pyrazol-4-yl)-1,2,3,4-tetrahydroisoquinolin-8-yl)oxy)-5-(4-methyl-7H-pyrrolo[2,3-d]pyrimidin-7-yl)cyclopentane-1,2-diol], the IC50 came to 3 nM in assay [1] and 39 nM in assay [2] (Homo sapiens, A549, 168 h).

As to `Nc1ncnc2c1c(Br)cn2[C@@H]1C[C@H](Oc2cc(F)c(F)c3c2CNCC3)[C@@H](O)[C@H]1O` [Example 125, (1S,2S,3R,5S)-3-(4-amino-5-bromo-7H-pyrrolo[2,3-d]pyrimidin-7-yl)-5-((5,6-difluoro-1,2,3,4-tetrahydroisoquinolin-8-yl)oxy)cyclopentane-1,2-diol], the IC50 was found to be 1 nM in assay [1] and 637 nM in assay [2] (Homo sapiens, A549, 168 h).

Regarding `Cc1ncnc2c1ccn2[C@@H]1C[C@H](Oc2cc(F)cc3c2CNCC3)[C@@H](O)[C@H]1O` [Example 85, (1S,2S,3S,5R)-3-((6-fluoro-1,2,3,4-tetrahydroisoquinolin-8-yl)oxy)-5-(4-methyl-7H-pyrrolo[2,3-d]pyrimidin-7-yl)cyclopentane-1,2-diol], the IC50 in assay [1] was determined as 2 nM; in assay [2] (Homo sapiens, A549, 168 h) it was 920 nM.

Consider `Cc1ncnc2c1ccn2[C@@H]1C[C@H](Oc2ccc(F)c3c2CNCC3C)[C@@H](O)[C@H]1O` (single isomer, unassigned) [Example 182, hydrochloride], for which the IC50 in assay [1] stood at 2 nM; in assay [2] (hydrochloride) it was 2180 nM.

Take `Cc1ncnc2c1ccn2[C@@H]1C[C@H](Oc2ccc(F)c3c2C(C)NCC3)[C@@H](O)[C@H]1O` (single isomer, unassigned) [Example 214]: the results for the IC50 in assay [1] and in assay [2] were 8 nM and 1080 nM, respectively.

The values above are taken from patent publication US10709709B2, “Substituted carbonucleoside derivatives useful as anticancer agents” (Pfizer Inc., priority 2016, dated 2020).
